Experimental data: patent US9365851B2, “Spalt-like transcription factor 4 (SALL4) and uses thereof” (National University of Singapore, priority 2011, dated 2016)

Test system: SALL4
Assay: SALL4 knock-down in HCC cells (qPCR, Western blot)
Format: cell-based, human
Procedure: Lentiviruses expressing scrambled shRNA or E5 SALL4-specific shRNA were packaged by treansfection of 293T cells with lentiviral vector pLL3.7. 24 hours and 48 hours post-transfection, viruses were harvested and filtered through […]. Virus titers were determined by FACS analysis of GFP expression using infected 3T3 cells by the conventional ways. MOI 0.5 to 5 was used dependent on individual cell lines. Transduction of HCC cells were carried out using spinoculation protocol, virus was added to the trypsinized cells and let settle for an hour at 37° C. in a humidified atmostphere of 5% CO2, centrifuged at 2,200 RPM at 37° C. for 90 mins and incubated overnight at 37° C. in a humidified atmostphere of 5% CO2. Transduction efficiency was determined by GFP expression by FACS analysis.
After successfully establishing the expression pattern of SALL4 in human livers at various stages and the clinical significance of SALL4 in HCC, the functional roles of SALL4 in HCC was investigated. […] The efficiency of virus transduction was assessed by FACS analysis of GFP expression. […]
Next, the potential of SALL4 as a molecular target for therapeutic intervention in HCC was examined by performing loss-of-function studies. […] The efficiency of virus transduction was assessed by the percentage of cells expressing GFP by flow cytometry. […]

## CTATTTAGCCAAAGGCAAA (short hairpin RNA, chemistry and delivery not given here, further chemistry not given here) [E5 shRNA]
SNU-398, four days post-transduction
  SALL4 isoforms mRNA level after knockdown: 70%
Western blot
  SALL4 protein level after knockdown: almost all SALL4 proteins were gone
